{
  "source": "patent US8932627B2",
  "about": "“Liposomal compositions of glucocorticoid and glucocorticoid derivatives” (Yissum Research Development Company of the Hebrew …, priority 2004, dated 2015)",
  "key": {"[1]": {"assay": "State of aggregation (turbidity, light scattering at 90°) of MPS as function of pH", "type": "physicochemical", "method": "Aggregation of MPS was determined from the change in turbidity measured as intensity of light scattered at 90° to excitation beam using a spectrofluormeter under conditions that MPS lack absorbance (excitation and emission at the same wavelength Ex=600 nm Em=600 nm). There is a large increase in the light scattered by MPS solution/dispersion due to formation of aggregates.\nThe intensity of scattered light (at 90° to the excitation), also defined as turbidity is proportional to concentration and to the size of the aggregates. [Zuidam, N. J. and Barenholz, Y., Biochim. Biophys. Acta 1368:115-128 (1998)]. The state of aggregation of MPS was tested in the following manner: To quartz cuvette MPS (2 ml) at concentration of ˜6.5 mg/ml MPS was added. The solution was tittered with HCl (1.756M) and light scattering using excitation and emission at (both at 600 nm with attenuation of 1%) and pH of the solution was monitored."}, "[2]": {"settings": "26° C.; MPS 0.785-30 mM", "method": "Surface tension was measured using μtrouge S (Kibron Inc., Helsinki Finland). A solution containing GC derivative (300 μL) was placed in the well after calibration and zeroing of the sensor using pure water and air. The measurement was performed at 26° C."}, "[3]": {"assay": "Precipitation of MPS by calcium ion (Ca-acetate solution)", "type": "physicochemical", "settings": "pH 4.5; 600 mOsm Ca-acetate, 63° C., 5 mg/ml MPS, 40 minutes", "method": "To 600 mOsm Ca-acetate solution at 63° C. and at different pH points MPS was added at final concentration of 5 mg/ml, then mixed solution was incubated for 40 minutes after which the solution was centrifuged and the supernatant was analyzed using HPLC."}, "[4]": {"tested_on": "Experimental Autoimmune Encephalomyelitis (EAE)", "assay": "Treatment of acute EAE (PLP 139-151 induced) with SSL-MPS, single injection", "type": "in vivo, SJL female mice", "settings": "50 mg/kg BW, 1 injection day 14, follow up 3 weeks"}, "[5]": {"tested_on": "Experimental Autoimmune Encephalomyelitis (EAE)", "assay": "Treatment of severe disease burden in acute EAE (PLP induced)", "type": "in vivo, SJL female mice", "method": "In order to boost the immune system Pertussis Toxin (PT) 150 ng were injected intraperitoneally (i.p.) to the mice on the first day and 48 hours later.\nEach mouse was examined daily for clinical signs of EAE using the following Table 4:\nFor mice showing a severe disease burden (determined by summing the scores of each of the 10 mice in the group and calculating the mean score per day, according to the following equation: Σtotal score of each mouse per day/number of mice in the group) a different treatment was applied. Specifically, after immunization as described above, mice were treated with 50 mg/kg BW SSL-MPS (days 10, 14, 18) or with free-MPS 50 mg/kg BW (days 10, 14, 18) or dextrose 5% (days 10, 14, 18). For each group, the incidence, MMS=mean maximal score; MDD=mean disease duration (days); MDO=mean day of onset and mean score were determined Table 7. Further, for each group the mean clinical scores at each time point was determined (FIG. 6B) as well as the survival curve (FIG. 6A)."}, "[6]": {"tested_on": "J6456 lymphoma cells (mouse T-cell lymphoma)", "assay": "Survival of mice injected i.p. with J6456 lymphoma cells", "type": "in vivo, BALB/C mice", "settings": "free-MPS days 5, 9, 12, SSL-MPS days 5, 9, 12, 16", "method": "At day 1 of the experiment BALB/C mice were injected i.p. with 1 million J6456 lymphoma cells (mouse T-cell lymphoma) then mice were divided into groups and treated by i.v. injections with free-MPS or SSL-MPS according to the following treatment schedule (Table 9)."}, "[7]": {"tested_on": "BCL-1 (mouse B cell lymphoid leukemia)", "assay": "Survival of BCL-1 tumor bearing mice", "type": "in vivo, BALB/C mice", "method": "In a further assay, survival of BCL-1 (mouse B cell lymphoid leukemia) tumor bearing mice was determined. […] Then, the mice were divided into groups and treated at days 5, 9, 12, 16, by i.v. injections, with the following treatment formulations: […]\nGroup I—5 mg/kg BW free-MPS;\nGroup II—25 mg/kg BW free-MPS;\nGroup III—5 mg/kg BW SSL-MPS;\nGroup IV—50 mg/kg BW SSL-MPS."}, "BCL-1 lymphoma cells": {"tested_on": "BCL-1 lymphoma cells", "assay": "Sensitivity of BCL-1 cell line to MPS", "type": "cell-based, mouse"}, "[8]": {"settings": "ex vivo stability, after 24 hours, passively loaded liposomes; cited from earlier work"}},
  "data": [
    {"molecule": "C[C@H]1C[C@@H]2[C@H]([C@@H](O)C[C@@]3(C)[C@H]2CC[C@]3(O)C(=O)COC(=O)CCC(=O)[O-])[C@@]2(C)C=CC(=O)C=C12.[Na+]", "note": "[MPS, methylprednisolone sodium hemisuccinate]", "values": [
      {"measurement": "state of aggregation (turbidity)", "setting": "[1]; acidic pH, FIG. 1A", "value": "it aggregates"},
      {"measurement": "state of aggregation (turbidity)", "setting": "[1]; pH 7.2, FIG. 1A", "value": "non-aggregated water soluble"},
      {"measurement": "surface activity (surface tension)", "setting": "[2]", "value": "surface active at all concentrations used"},
      {"measurement": "% MPS precipitated", "setting": "[3]", "value": 97, "unit": "%"},
      {"measurement": "Incidence", "setting": "[4]", "value": "7/9"},
      {"measurement": "MDD (mean disease duration)", "setting": "[4]", "value": "10.9 ± 2.7", "unit": "days"},
      {"measurement": "MDO (mean day of onset)", "setting": "[4]", "value": "16.7 ± 1.83"},
      {"measurement": "MMS (mean maximal score)", "setting": "[4]", "value": "2.35 ± 0.39"},
      {"measurement": "Mean Score", "setting": "[4]", "value": "0.861 ± 0.105"},
      {"measurement": "#dead", "setting": "[5]; 50 mg/kg BW days 10, 14, 18", "value": 3},
      {"measurement": "Incidence", "setting": "[5]; 50 mg/kg BW days 10, 14, 18", "value": "9/9"},
      {"measurement": "MDD (mean disease duration)", "setting": "[5]; 50 mg/kg BW days 10, 14, 18", "value": "10.11 ± 1.92", "unit": "days"},
      {"measurement": "MDO (mean day of onset)", "setting": "[5]; 50 mg/kg BW days 10, 14, 18", "value": "12.67 ± 0.65"},
      {"measurement": "MMS (mean maximal score)", "setting": "[5]; 50 mg/kg BW days 10, 14, 18", "value": "4.44 ± 0.50"},
      {"measurement": "Mean Score", "setting": "[5]; 50 mg/kg BW days 10, 14, 18", "value": "2.62 ± 0.208"},
      {"measurement": "survival / mortality", "setting": "[5]; 50 mg/kg BW days 10, 14, 18, FIG. 6A", "value": "there was mortality"},
      {"measurement": "mean clinical score at day 19", "setting": "[5]; 50 mg/kg BW days 10, 14, 18, FIG. 6B", "value": "~3"},
      {"measurement": "Median survival", "setting": "[6]; 15 mg/kg BW i.v.", "value": 16},
      {"measurement": "Median survival", "setting": "[6]; 50 mg/kg BW i.v.", "value": 16},
      {"measurement": "Survival median", "setting": "[7]; 5 mg/kg BW i.v. days 5, 9, 12, 16", "value": 19},
      {"measurement": "Survival median", "setting": "[7]; 25 mg/kg BW i.v. days 5, 9, 12, 16", "value": 19},
      {"measurement": "sensitivity of the cell line", "setting": "BCL-1 lymphoma cells; BCL-1", "value": "highly sensitive"},
      {"measurement": "IC50", "setting": "BCL-1 lymphoma cells; BCL-1 lymphoma cells (B cell line)", "value": "in the nmolar range"}
    ]},
    {"molecule": "triamcinolone acetonide phosphate", "values": [
      {"measurement": "acidic corticosteroid retained by the liposome", "setting": "[8]", "value": "more than 75%"}
    ]}
  ]
}
